Assay results as given in PubChem BioAssay AID1259411 (Chemical Carcinogenesis Research Information System (CCRIS), 2018).
Active and inactive are the calls of the source. No rule for the calls is given here.

System: rodent carcinogenicity bioassays, tumor incidence
Experiment: CCRIS carcinogenicity studies
Conditions: Dose: 0, Dose: 0
Outline: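 Archive of carcinogenicity, mutagenicity, tumor promotion and tumor inhibition results drawn from journals, NCI reports and other sources, expert-reviewed; covers 1985-2011 and is no longer updated.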

Q: For `Nc1ccc([N+](=O)[O-])cc1N`, which carcinogen call (Species: MOUSE, Strain/Sex: B6C3F1/FEMALE, Route: ORAL, 3750, 7500 PPM IN DIET, 3750, 7500 PPM IN DIET) is on record?
A: inactive; negative

Q: And the carcinogen call (Species: MOUSE, Strain/Sex: B6C3F1/MALE, Route: ORAL, 3750, 7500 PPM IN DIET, 3750, 7500 PPM IN DIET)?
A: inactive; negative

Q: And the carcinogen call (Species: RAT, Strain/Sex: F344/FEMALE, Route: ORAL, 375, 750 PPM IN DIET, 375, 750 PPM IN DIET)?
A: inactive; negative

Q: What about the carcinogen call (Species: RAT, Strain/Sex: F344/MALE, Route: ORAL, 375, 750 PPM IN DIET, 375, 750 PPM IN DIET) of the same compound?
A: inactive; negative

Q: For `O=C1CCC(=O)O1`, which carcinogen call (Species: MOUSE, Strain/Sex: B6C3F1/FEMALE, Route: GAVAGE, 75, 150 MG/KG IN CORN OIL 5 D/WK FOR 103 WK (STUDY DURATION: 104 WK), 75, 150 MG/KG IN CORN OIL 5 D/WK FOR 103 WK (STUDY DURATION: 104 WK)) is on record?
A: inactive; negative

Q: What about the carcinogen call (Species: MOUSE, Strain/Sex: B6C3F1/MALE, Route: GAVAGE, 38, 75 MG/KG IN CORN OIL 5 D/WK FOR 103 WK (STUDY DURATION: 104 WK), 38, 75 MG/KG IN CORN OIL 5 D/WK FOR 103 WK (STUDY DURATION: 104 WK)) of the same compound?
A: inactive; negative

Q: And the carcinogen call (Species: RAT, Strain/Sex: F344/FEMALE, Route: GAVAGE, 50, 100 MG/KG IN CORN OIL 5 D/WK FOR 103 WK (STUDY DURATION: 104 WK), 50, 100 MG/KG IN CORN OIL 5 D/WK FOR 103 WK (STUDY DURATION: 104 WK))?
A: inactive; negative

Q: What about the carcinogen call (Species: RAT, Strain/Sex: F344/MALE, Route: GAVAGE, 50, 100 MG/KG IN CORN OIL 5 D/WK FOR 103 WK (STUDY DURATION: 104 WK), 50, 100 MG/KG IN CORN OIL 5 D/WK FOR 103 WK (STUDY DURATION: 104 WK)) of the same compound?
A: inactive; negative

Q: For `COP(=O)(OC)OC(=CCl)c1cc(Cl)c(Cl)cc1Cl`, which carcinogen call (Species: MOUSE, Strain/Sex: B6C3F1/MALE, Route: ORAL, 8000, 16000 PPM IN DIET, 8000, 16000 PPM IN DIET, Tumor Site: Type of Lesion: LIVER: NEOPLASTIC NODULE OR HEPATOCELLULAR CARCINOMA) is on record?
A: active; positive

Q: And the carcinogen call (Species: RAT, Strain/Sex: OSBORNE-MENDEL/MALE, Route: ORAL, 4250, 8500 PPM IN DIET, TWA, 4250, 8500 PPM IN DIET, TWA)?
A: inactive; negative

Q: Which carcinogen call (Species: MOUSE, Strain/Sex: SWISS/FEMALE, Route: DERMAL, 1, 4 NMOL IN 100 µL ACETONE 2/WK FOR 40 WK (STUDY DURATION: 48 WK), 1, 4 NMOL IN 100 µL ACETONE 2/WK FOR 40 WK (STUDY DURATION: 48 WK), Tumor Site: Type of Lesion: SKIN: TUMORS) does the source give for `OC1C=Cc2c(cc3ccc4cccc5c6ccccc6c2c3c45)C1O` (stereo unspecified) here?
A: active; positive

Q: Which carcinogen call (Species: MOUSE, Strain/Sex: B6C3F1/FEMALE, Route: GAVAGE, 15, 30 MG/KG IN CORN OIL FOR 103 WK (STUDY DURATION: 105 WK), 15, 30 MG/KG IN CORN OIL FOR 103 WK (STUDY DURATION: 105 WK), Tumor Site: Type of Lesion: FORESTOMACH: SQUAMOUS CELL PAPILLOMA) does the source give for `CN(C)c1ccccc1` here?
A: equivocal

Q: And the carcinogen call (Species: MOUSE, Strain/Sex: B6C3F1/MALE, Route: GAVAGE, 15, 30 MG/KG IN CORN OIL FOR 103 WK (STUDY DURATION: 105 WK), 15, 30 MG/KG IN CORN OIL FOR 103 WK (STUDY DURATION: 105 WK))?
A: inactive; negative

Q: What about the carcinogen call (Species: RAT, Strain/Sex: F344/FEMALE, Route: GAVAGE, 3, 30 MG/KG IN CORN OIL 5 D/WK FOR 103 WK (STUDY DURATION: 105 WK), 3, 30 MG/KG IN CORN OIL 5 D/WK FOR 103 WK (STUDY DURATION: 105 WK)) of the same compound?
A: inactive; negative

Q: And the carcinogen call (Species: RAT, Strain/Sex: F344/MALE, Route: GAVAGE, 3, 30 MG/KG IN CORN OIL 5 D/WK FOR 103 WK (STUDY DURATION: 105 WK), 3, 30 MG/KG IN CORN OIL 5 D/WK FOR 103 WK (STUDY DURATION: 105 WK), Tumor Site: Type of Lesion: SPLEEN: SARCOMA, SARCOMA OR OSTEOSARCOMA)?
A: active; positive

Q: What does the source list for `O=[N+]([O-])c1ccc2c3c1ccc1cccc(c13)[C@@H]1O[C@H]21`?
A: carcinogen call (Species: MOUSE, Strain/Sex: B6C3F1/FEMALE, Route: INTRAPERITONEAL, 7 NMOL (TOTAL DOSE), 1/7, 2/7 AND 4/7 OF THE TOTAL DOSE ADMINISTERED WITHIN 24 HR OF BIRTH AND AT 8 AND 15 D OF AGE): inactive; negative; carcinogen call (Species: MOUSE, Strain/Sex: B6C3F1/MALE, Route: INTRAPERITONEAL, 7 NMOL (TOTAL DOSE), 1/7, 2/7 AND 4/7 OF THE TOTAL DOSE ADMINISTERED WITHIN 24 HR OF BIRTH AND AT 8 AND 15 D OF AGE): inactive; negative

Q: With `O=S(=O)([O-])[O-].[O]=[V+2]` as the compound, how does the carcinogen call (Species: MOUSE, Strain/Sex: SWISS/FEMALE, Route: ORAL, 5 PPM IN DRINKING WATER FOR DURATION OF STUDY (STUDY DURATION: LIFE SPAN)) read?
A: inactive; negative

Q: And the carcinogen call (Species: MOUSE, Strain/Sex: SWISS/MALE, Route: ORAL, 5 PPM IN DRINKING WATER FOR DURATION OF STUDY (STUDY DURATION: LIFE SPAN))?
A: inactive; negative

Q: Which carcinogen call (Species: MOUSE, Strain/Sex: B6C3F1/FEMALE, Route: ORAL, 300, 600 PPM IN DIET, 300, 600 PPM IN DIET) does the source give for `Cc1ccc(N)cc1Cl` here?
A: inactive; negative

Q: And the carcinogen call (Species: MOUSE, Strain/Sex: B6C3F1/MALE, Route: ORAL, 600, 1200 PPM IN DIET, 600, 1200 PPM IN DIET)?
A: inactive; negative

Q: What about the carcinogen call (Species: RAT, Strain/Sex: F344/FEMALE, Route: ORAL, 1635, 3269 PPM IN DIET, TWA, 1635, 3269 PPM IN DIET, TWA) of the same compound?
A: inactive; negative

Q: And the carcinogen call (Species: RAT, Strain/Sex: F344/MALE, Route: ORAL, 1635, 3269 PPM IN DIET, TWA, 1635, 3269 PPM IN DIET, TWA)?
A: inactive; negative

Q: What does the source list for `O[C@@H]1[C@@H]2O[C@@H]2c2c(cc3ccc4cccc5c6ccccc6c2c3c45)[C@H]1O`?
A: carcinogen call (Species: MOUSE, Strain/Sex: ICR/FEMALE, Route: INTRAPERITONEAL, 0.7 NMOL TOTAL DOSE INJECTED ON DAY 1 OF LIFE (STUDY DURATION: 35 WK), Tumor Site: Type of Lesion: LIVER: TUMOR, LUNG: TUMOR): active; positive; carcinogen call (Species: MOUSE, Strain/Sex: ICR/FEMALE, Route: INTRAPERITONEAL, 1 NMOL (TOTAL DOSE) ADMINISTERED IN DOSES OF 1/7, 2/7, AND 4/7 ON DAYS 1, 7, AND 15 OF LIFE, RESPECTIVELY (STUDY DURA, Tumor Site: Type of Lesion: LUNG: TUMOR): active; positive; carcinogen call (Species: MOUSE, Strain/Sex: ICR/FEMALE, Route: INTRAPERITONEAL, 1 NMOL TOTAL DOSE INJECTED IN DOSES OF 1/7 ON DAY 1, 2/7 ON DAY 8, AND 4/7 ON DAY 15 OF LIFE (STUDY DURATION: 35 WK), Tumor Site: Type of Lesion: LIVER: TUMOR, LUNG: TUMOR): active; positive; carcinogen call (Species: MOUSE, Strain/Sex: ICR/MALE, Route: INTRAPERITONEAL, 0.7 NMOL TOTAL DOSE INJECTED ON DAY 1 OF LIFE (STUDY DURATION: 35 WK), Tumor Site: Type of Lesion: LUNG: TUMOR): active; positive; carcinogen call (Species: MOUSE, Strain/Sex: ICR/MALE, Route: INTRAPERITONEAL, 1 NMOL (TOTAL DOSE) ADMINISTERED IN DOSES OF 1/7, 2/7, AND 4/7 ON DAYS 1, 7, AND 15 OF LIFE, RESPECTIVELY (STUDY DURA, Tumor Site: Type of Lesion: LUNG: TUMOR, LIVER: TUMOR): active; positive; carcinogen call (Species: MOUSE, Strain/Sex: ICR/MALE, Route: INTRAPERITONEAL, 1 NMOL TOTAL DOSE INJECTED IN DOSES OF 1/7 ON DAY 1, 2/7 ON DAY 8, AND 4/7 ON DAY 15 OF LIFE (STUDY DURATION: 35 WK), Tumor Site: Type of Lesion: LIVER: TUMOR, LUNG:TUMOR): active; positive; carcinogen call (Species: RAT, Strain/Sex: CD-1/FEMALE, Route: INJECTION, 0.2 UMOL IN 0.1 ML DMSO INJECTED BENEATH EACH OF THE 6 NIPPLES ON THE LEFT SIDE (STUDY DURATION: 41 WK), Tumor Site: Type of Lesion: MAMMARY GLAND: TUMOR): active; positive; carcinogen call (Species: RAT, Strain/Sex: STRAIN-CD/FEMALE, Route: INJECTION, 0.2 UMOL IN 0.1 ML DMSO INJECTED UNDER EACH OF THE 3 LEFT THORACIC NIPPLES FOLLOWED THE NEXT DAY BY SIMILAR TREATMENT, Tumor Site: Type of Lesion: MAMMARY GLAND: TUMOR): active; positive
